Reference: the NIST ThermoML archive (doi:10.1021/acs.jced.7b00585)
Numbers after ± are expanded uncertainties.

Settings: Crystal; visual observation

Normal melting temperature: 175 ± 2 °C
Compound: CC1(C)COP(=O)(C(Nc2ccccc2)c2ccccc2)OC1 (stereo unspecified)
